Calls of active or inactive are those of the source. The rule behind the calls is not given here.
Columns and labels:
[1] = test system: Tyrosine-protein kinase ABL1 (Homo sapiens), P00519 [H396P]; test: Inhibition of ABL1 H396P mutant (unknown origin) at 10 uM by Ambit Kinomescan binding assay relative to control
[2] = molecular target: Casein kinase II subunit alpha' (Homo sapiens) (UniProt P19784); test: Inhibition of CSNK2A2 (unknown origin) at 10 uM by Ambit Kinomescan binding assay
[3] = molecular target: AMPK alpha1/alpha2 (Homo sapiens) (UniProt P54646+Q13131); test: Inhibition of AMPK alpha 1/2 K1 labeling site in human Huh-7 cells at 10 uM by KiNativ Profiling analysis relative to control; assay type: cell-based
[4] = molecular target: T1, Serine/threonine-protein kinase Nek9 (Homo sapiens) (UniProt Q8TD19); test: Inhibition of NEK9 (unknown origin) at 10 uM by Ambit Kinomescan binding assay
T1 sequence (whole entry): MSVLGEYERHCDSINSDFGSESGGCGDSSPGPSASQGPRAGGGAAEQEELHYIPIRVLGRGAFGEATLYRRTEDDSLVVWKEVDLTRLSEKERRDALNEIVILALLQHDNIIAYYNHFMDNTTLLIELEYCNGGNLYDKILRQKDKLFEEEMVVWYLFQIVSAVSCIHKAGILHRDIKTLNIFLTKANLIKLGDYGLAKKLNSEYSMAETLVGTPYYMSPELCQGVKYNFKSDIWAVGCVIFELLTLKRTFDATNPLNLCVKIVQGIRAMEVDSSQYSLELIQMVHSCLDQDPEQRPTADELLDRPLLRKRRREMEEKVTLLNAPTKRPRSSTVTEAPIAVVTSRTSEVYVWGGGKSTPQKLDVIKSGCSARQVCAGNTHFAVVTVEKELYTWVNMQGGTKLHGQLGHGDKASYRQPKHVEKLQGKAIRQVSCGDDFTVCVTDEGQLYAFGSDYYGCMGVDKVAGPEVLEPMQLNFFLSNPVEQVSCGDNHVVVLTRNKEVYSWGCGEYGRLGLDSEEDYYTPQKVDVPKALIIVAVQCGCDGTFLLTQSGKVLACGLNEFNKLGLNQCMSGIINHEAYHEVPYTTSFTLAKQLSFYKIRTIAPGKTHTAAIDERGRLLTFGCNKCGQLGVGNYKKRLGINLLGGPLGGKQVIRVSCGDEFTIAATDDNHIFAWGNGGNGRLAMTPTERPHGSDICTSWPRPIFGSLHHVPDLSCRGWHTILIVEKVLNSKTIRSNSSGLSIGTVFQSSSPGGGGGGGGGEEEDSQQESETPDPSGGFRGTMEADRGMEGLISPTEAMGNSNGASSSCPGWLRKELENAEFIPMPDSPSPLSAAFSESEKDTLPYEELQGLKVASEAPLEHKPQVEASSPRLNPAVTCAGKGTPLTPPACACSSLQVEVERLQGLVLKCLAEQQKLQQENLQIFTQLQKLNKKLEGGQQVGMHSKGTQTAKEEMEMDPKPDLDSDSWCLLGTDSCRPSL

[5] = molecular target: Interleukin-1 receptor-associated kinase 1 (Homo sapiens) (UniProt P51617); test: Inhibition of IRAK1 Lys2 labeling site in human A-375 cells at 0.5 uM by KiNativ Profiling analysis relative to control; assay type: cell-based
Sequence of Interleukin-1 receptor-associated kinase 1 (Homo sapiens) (P51617 whole entry, looked up): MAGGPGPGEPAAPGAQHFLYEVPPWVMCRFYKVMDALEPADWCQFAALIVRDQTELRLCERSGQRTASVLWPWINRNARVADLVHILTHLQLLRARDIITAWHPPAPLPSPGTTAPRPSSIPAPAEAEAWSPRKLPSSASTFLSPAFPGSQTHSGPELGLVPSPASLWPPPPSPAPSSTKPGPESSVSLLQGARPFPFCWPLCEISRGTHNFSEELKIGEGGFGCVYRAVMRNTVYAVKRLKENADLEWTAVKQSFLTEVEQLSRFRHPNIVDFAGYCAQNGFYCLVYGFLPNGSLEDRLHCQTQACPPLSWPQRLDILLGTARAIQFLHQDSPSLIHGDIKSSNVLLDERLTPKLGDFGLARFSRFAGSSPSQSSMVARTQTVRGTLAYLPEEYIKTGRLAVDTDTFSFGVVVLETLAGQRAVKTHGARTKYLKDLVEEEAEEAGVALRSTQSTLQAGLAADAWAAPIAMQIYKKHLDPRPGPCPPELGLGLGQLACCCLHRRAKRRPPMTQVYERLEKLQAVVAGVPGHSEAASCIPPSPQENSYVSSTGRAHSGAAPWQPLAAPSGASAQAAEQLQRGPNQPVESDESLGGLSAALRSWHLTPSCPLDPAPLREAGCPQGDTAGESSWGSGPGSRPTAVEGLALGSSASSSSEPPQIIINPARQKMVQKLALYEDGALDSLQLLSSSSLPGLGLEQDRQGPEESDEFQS

[6] = test system: Epidermal growth factor receptor (Homo sapiens), P00533 [UNDEFINED MUTATION]; test: Inhibition of EGFR E746-A750del mutant (unknown origin) at 10 uM by Ambit Kinomescan binding assay relative to control
Sequence of Epidermal growth factor receptor (Homo sapiens), P00533 [UNDEFINED MUTATION] (P00533 whole entry, looked up, stated change not applied): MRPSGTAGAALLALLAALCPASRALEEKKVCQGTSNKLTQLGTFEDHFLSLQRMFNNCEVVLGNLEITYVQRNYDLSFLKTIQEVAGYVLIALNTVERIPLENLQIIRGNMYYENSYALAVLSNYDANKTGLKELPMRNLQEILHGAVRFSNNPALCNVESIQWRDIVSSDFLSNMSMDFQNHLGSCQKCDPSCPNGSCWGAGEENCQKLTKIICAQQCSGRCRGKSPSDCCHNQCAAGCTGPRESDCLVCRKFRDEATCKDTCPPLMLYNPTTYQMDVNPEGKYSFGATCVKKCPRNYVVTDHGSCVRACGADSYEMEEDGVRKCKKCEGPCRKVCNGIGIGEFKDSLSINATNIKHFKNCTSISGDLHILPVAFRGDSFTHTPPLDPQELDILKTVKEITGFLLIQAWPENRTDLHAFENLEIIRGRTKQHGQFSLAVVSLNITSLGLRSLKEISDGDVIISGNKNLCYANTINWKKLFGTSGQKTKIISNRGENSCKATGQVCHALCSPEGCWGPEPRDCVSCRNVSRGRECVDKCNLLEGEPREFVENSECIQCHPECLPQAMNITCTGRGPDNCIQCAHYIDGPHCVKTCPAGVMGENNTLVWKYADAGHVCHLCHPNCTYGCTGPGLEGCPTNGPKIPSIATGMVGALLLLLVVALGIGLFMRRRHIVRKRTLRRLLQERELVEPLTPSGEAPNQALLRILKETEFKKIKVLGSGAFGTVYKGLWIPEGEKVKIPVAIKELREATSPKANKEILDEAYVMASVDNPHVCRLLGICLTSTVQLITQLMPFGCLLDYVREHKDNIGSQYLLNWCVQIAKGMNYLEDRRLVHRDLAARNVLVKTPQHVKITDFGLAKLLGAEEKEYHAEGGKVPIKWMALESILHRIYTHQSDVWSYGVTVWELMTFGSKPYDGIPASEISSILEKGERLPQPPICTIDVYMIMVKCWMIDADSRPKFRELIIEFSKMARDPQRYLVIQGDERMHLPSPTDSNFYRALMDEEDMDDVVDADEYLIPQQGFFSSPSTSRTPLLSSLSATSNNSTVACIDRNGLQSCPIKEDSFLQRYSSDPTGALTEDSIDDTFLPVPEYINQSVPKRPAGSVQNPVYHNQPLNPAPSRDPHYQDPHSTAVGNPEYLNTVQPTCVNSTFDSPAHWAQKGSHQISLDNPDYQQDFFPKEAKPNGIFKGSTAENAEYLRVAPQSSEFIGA

[7] = molecular target: Cyclin-dependent kinase 2 (Homo sapiens) (UniProt P24941); test: Inhibition of CDK2 Lys2 labeling site harbouring DLKPQNLLINTEGAIK in human Huh-7 cells at 1 uM by KiNativ Profiling analysis relative to control; assay type: cell-based
[8] = molecular target: T1, Serine/threonine-protein kinase Nek9 (Homo sapiens); test: Inhibition of NEK9 Lys2 labeling site in human Huh-7 cells at 1 uM by KiNativ Profiling analysis relative to control; assay type: cell-based
[9] = molecular target: Epidermal growth factor receptor (Homo sapiens) (UniProt P00533); test: Inhibition of EGFR Lys1 labeling site harbouring GLWIPEGEKVKIPVAIKELR in human Huh-7 cells at 1 uM by KiNativ Profiling analysis relative to control; assay type: cell-based
[10] = molecular target: Serine/threonine-protein kinase mTOR (Homo sapiens) (UniProt P42345); test: Inhibition of FRAP ATP labeling site in human Huh-7 cell lysate at 1 uM by KiNativ Profiling analysis relative to control; assay type: subcellular
[11] = molecular target: 3-phosphoinositide-dependent protein kinase 1 (Homo sapiens) (UniProt O15530); test: Inhibition of PDPK1 (unknown origin) at 1 uM by Ambit Kinomescan binding assay relative to control; values are per cent of control
Sequence of 3-phosphoinositide-dependent protein kinase 1 (Homo sapiens) (O15530 whole entry): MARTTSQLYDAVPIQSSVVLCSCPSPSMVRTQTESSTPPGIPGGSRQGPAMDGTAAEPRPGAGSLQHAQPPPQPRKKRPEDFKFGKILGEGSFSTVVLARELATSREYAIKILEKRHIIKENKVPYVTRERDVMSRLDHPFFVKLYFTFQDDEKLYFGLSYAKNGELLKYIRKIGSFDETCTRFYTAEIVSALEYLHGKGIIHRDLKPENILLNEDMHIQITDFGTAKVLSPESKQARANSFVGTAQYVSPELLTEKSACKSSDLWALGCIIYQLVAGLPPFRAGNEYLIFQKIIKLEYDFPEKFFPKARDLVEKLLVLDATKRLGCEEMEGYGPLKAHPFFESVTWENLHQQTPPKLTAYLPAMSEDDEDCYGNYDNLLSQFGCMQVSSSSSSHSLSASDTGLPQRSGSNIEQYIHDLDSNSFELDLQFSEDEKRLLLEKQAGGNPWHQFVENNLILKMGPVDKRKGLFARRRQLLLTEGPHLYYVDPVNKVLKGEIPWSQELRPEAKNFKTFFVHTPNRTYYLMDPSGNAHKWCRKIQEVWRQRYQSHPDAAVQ

[12] = molecular target: Homeodomain-interacting protein kinase 1 (Homo sapiens) (UniProt Q86Z02); test: Inhibition of HIPK1 (unknown origin) at 1 uM by Ambit Kinomescan binding assay relative to control; values are per cent of control
Sequence of Homeodomain-interacting protein kinase 1 (Homo sapiens) (Q86Z02 whole entry, looked up): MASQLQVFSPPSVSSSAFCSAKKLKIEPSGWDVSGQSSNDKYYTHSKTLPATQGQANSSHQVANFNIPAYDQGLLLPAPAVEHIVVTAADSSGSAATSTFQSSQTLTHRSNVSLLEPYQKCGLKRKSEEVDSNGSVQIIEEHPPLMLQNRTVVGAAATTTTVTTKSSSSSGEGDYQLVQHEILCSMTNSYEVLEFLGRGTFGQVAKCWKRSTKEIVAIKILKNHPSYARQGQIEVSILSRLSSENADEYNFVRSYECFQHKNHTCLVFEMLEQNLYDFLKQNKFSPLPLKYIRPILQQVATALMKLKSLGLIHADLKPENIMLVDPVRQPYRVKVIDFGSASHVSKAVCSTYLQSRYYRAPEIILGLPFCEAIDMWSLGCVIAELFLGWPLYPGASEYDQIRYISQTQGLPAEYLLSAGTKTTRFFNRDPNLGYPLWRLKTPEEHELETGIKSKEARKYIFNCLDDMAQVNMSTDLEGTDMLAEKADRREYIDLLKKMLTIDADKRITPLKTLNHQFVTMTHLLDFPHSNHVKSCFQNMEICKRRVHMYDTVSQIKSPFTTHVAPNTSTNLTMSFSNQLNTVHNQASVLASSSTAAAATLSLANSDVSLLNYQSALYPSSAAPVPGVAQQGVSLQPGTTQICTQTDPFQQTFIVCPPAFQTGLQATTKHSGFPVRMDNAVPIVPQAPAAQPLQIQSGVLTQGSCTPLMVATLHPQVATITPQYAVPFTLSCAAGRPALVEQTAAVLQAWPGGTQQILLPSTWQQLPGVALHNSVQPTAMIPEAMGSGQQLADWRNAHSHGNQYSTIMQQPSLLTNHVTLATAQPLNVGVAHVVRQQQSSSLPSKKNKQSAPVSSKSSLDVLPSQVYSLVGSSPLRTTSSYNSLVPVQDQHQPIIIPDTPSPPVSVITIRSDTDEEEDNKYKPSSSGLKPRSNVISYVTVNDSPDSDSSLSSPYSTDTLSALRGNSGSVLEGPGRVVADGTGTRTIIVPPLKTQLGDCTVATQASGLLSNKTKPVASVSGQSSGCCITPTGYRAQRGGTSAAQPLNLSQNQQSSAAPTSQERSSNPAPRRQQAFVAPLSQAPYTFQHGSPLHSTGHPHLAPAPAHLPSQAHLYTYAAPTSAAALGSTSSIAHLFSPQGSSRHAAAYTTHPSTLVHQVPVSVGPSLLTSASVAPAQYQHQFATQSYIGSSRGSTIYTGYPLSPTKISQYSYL

[13] = molecular target: Receptor tyrosine-protein kinase erbB-3 (Homo sapiens) (UniProt P21860); test: Inhibition of HER3/ErbB3 Lys1 labeling site in human A-375 cells at 5 uM by KiNativ Profiling analysis relative to control; assay type: cell-based
Sequence of Receptor tyrosine-protein kinase erbB-3 (Homo sapiens) (P21860 whole entry): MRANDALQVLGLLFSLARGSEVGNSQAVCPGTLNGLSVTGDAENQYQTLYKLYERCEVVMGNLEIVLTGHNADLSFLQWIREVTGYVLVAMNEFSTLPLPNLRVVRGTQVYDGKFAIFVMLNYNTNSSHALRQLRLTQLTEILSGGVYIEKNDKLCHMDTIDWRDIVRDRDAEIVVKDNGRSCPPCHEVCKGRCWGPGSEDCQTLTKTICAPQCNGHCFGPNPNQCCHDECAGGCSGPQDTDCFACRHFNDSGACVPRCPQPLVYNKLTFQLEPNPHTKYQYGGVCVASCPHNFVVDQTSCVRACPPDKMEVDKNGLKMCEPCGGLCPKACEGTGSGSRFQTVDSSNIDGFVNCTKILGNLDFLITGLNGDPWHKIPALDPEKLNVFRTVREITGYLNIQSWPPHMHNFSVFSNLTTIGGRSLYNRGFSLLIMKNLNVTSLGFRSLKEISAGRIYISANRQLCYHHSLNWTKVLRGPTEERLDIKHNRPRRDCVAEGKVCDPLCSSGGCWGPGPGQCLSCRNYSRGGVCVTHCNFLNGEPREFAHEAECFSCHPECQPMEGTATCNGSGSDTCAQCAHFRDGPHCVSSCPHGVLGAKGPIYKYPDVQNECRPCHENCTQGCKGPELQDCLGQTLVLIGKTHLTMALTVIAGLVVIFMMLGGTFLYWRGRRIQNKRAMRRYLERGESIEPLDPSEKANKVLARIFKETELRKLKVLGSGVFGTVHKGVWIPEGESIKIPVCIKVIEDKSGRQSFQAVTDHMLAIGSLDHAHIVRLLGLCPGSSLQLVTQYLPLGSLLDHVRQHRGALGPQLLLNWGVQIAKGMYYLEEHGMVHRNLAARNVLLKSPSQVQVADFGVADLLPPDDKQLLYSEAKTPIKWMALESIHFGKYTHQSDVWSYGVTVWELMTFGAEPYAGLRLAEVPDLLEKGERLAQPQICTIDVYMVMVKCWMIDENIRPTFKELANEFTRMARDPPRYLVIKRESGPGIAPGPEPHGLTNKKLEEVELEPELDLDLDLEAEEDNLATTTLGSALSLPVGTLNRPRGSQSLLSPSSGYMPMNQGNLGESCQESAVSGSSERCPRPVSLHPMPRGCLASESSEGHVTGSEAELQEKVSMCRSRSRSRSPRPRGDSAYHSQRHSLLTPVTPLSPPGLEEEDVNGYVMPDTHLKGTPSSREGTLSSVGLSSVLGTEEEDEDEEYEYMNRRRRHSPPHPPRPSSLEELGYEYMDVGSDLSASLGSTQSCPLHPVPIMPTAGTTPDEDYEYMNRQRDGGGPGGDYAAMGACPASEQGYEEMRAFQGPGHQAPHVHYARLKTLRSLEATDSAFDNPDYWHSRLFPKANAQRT

[14] = molecular target: T2, Serine/threonine-protein kinase TBK1 (Homo sapiens) (UniProt Q9UHD2); test: Inhibition of TBK1 Lys2 labeling site in human A-375 cells at 5 uM by KiNativ Profiling analysis relative to control; assay type: cell-based
T2 sequence (whole entry): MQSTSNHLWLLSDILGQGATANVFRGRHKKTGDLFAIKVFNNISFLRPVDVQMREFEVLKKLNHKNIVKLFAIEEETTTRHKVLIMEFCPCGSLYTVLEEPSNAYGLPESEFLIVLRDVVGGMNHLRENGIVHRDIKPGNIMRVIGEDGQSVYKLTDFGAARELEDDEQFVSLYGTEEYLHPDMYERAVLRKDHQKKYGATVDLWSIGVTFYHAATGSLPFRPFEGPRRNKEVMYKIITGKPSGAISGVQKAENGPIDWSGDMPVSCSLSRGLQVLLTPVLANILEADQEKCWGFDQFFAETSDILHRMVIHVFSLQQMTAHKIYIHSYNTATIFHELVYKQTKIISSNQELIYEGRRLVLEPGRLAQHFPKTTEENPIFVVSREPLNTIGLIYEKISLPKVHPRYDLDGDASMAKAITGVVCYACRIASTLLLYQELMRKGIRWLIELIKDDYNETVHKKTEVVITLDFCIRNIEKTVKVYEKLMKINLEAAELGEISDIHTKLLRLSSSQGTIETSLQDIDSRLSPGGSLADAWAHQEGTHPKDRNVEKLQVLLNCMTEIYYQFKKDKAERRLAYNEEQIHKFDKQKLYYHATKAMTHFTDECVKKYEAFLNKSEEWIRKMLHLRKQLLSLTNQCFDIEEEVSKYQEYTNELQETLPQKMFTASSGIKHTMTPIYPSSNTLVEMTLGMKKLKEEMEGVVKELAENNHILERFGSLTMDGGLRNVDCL

## CCN1CCN(Cc2ccc(NC(=O)c3ccc(C)c(Oc4ccnc5[nH]ccc45)c3)cc2C(F)(F)F)CC1
[1]
  inhibition: 0.7%
[2]
  inhibition: inactive
[3]
  inhibition: 34.6%
[4]
  inhibition: inactive
[5]
  inhibition: 2.5%
[6]
  inhibition: 8.4%

## CNc1cc(Oc2cc(C(=O)Nc3cc(N4CCN(C)CC4)cc(C(F)(F)F)c3)ccc2C)ncn1
[7]
  inhibition: -0.4%
[8]
  inhibition: -4.9%
[9]
  inhibition: -5.2%
[10]
  inhibition: -1.8%

## CCN1CCN(Cc2ccc(NC(=O)c3ccc(C)c(/C=C/c4cnc5[nH]ccc5c4OC)c3)cc2C(F)(F)F)CC1
[11]
  residual activity: 100%
[12]
  residual activity: 74%
[13]
  inhibition: -6.6%
[14]
  inhibition: 37.6%
